PMC7217877, “N-AS-triggered SPMs are direct regulators of microglia in a model of Alzheimer’s disease” (Nature Communications, 2020)
Values joined by “and” are separate entries in the source; they are usually repeats but may differ in a detail not shown here. Equal entries are not always repeated.

How the values were obtained:
APP/PS1 mice = assay: open field test (Supplementary Fig 7f-i); format: in vivo, mouse; parameters: open field test, sFig 7f (sheet untitled): unit not given here
Protocol: Transgenic mouse lines over-expressing the hAPP695swe (APP) and presenilin-1M146V (PS1) mutations were originated from GlaxoSmithKline (Harlow, UK)[32] and maintained as described previously. We purchased 5×FAD mice from Jackson Labs (Stock number. 34840-JAX). Because APP/PS1 and 5xFAD mice show sex differences in disease progression, we used only male mice. To examine possible therapeutic effect of N-AS and aspirin in APP/PS1 mice, the N-AS (30 mg kg^−1, Sigma-Aldrich, 01912) was injected daily s.c. for 8 weeks to 7-months-old APP/PS1 mice until the age of 9 months, and aspirin (2 mg kg^−1, Sigma-Aldrich, A5376)[33] was administrated orally to 7-months-old APP/PS1 mice for 8 weeks. […] Block randomization method was used to allocate the animals to experimental groups. To eliminate the bias, we were blinded in experimental progress such as data collection and data analysis. Mice were housed at temperature of 22 °C and a 12 h day/12 h night cycle with free access to tap water and food pellets. All protocols were approved by the Kyungpook National University Institutional Animal Care and Use Committee. […] Freezing was analyzed for 5 min. […] Overall activity in the box was measured, and the amount of time and distance traveled in the center arena was noted. […] The total number of transitions, latency to first enter the light chamber, distance traveled, and time spent in each chamber were recorded.

astrocyte = assay: western blotting for ac-S565 and total COX2 in primary cells; format: cell-based, C57BL/6 mice; details: Ab 10mM, replicates
Protocol: To confirm the generation and roles of N-AS in neurons, cells from E18 C57BL/6 mice were prepared as previously described. Cortices were dissected and then dissociated followed by incubation in papain (Worthington) at 37 °C for 15 min. Neurons were plated on poly-L-lysine-coated coverslips with neuronal culture medium, serum-free Neurobasal medium (Gibco) containing 2% B27 supplements (Gibco), 1 mM Glutamax supplement (Gibco), and 100 U ml^−1 streptomycin/ 100 U ml^−1 penicillin (Gibco) at 37 °C in a humidified atmosphere of 5% CO2. Aβ 1–42 (10 μM, 24 h, Invitrogen, 03112) was exposed to neurons and the cells were analyzed for the generation and roles of N-AS. Primary astrocyte cultures were prepared from C57BL/6 mice as described previously. In brief, after removal of the meninges, postnatal day 7 (P7) mouse brain tissues were minced and incubated in a rocking water bath at 37 °C for 30 min in the presence of 0.25% trypsin-EDTA (Sigma-Aldrich). […] The human microglia treated with Aβ 1–42 and/or zileuton was incubated with N-AS (2.5 μM, 2 h, Sigma-Aldrich, 01912), and were analyzed for the generation and roles of N-AS.
Samples were lysed in RIPA buffer (Cell signaling Technologies), then subjected to SDS-PAGE and transferred to a nitrocellulose membrane. […] We performed densitometric quantification using the ImageJ software (National Institutes of Health). […]

| Compound | open field test, sFig 7f (sheet untitled) (APP/PS1 mice; APP/PS1 + N-AS, sums to 600 with sFig 7g) | locomotion and spontaneous activity, open field test (APP/PS1 mice; N-AS vs APP/PS1) | ac-S565 / total COX2, western blotting (Fig 3b) (astrocyte) |
| --- | --- | --- | --- |
| CCCCCCCCCCCCC/C=C/[C@@H](O)[C@H](CO)NC(C)=O [N-AS, N-((2S,3R,E)-1,3-Dihydroxyoctadec-4-en-2-yl)acetamide] | 520.5 and 509.5 and 517.5 and 503.5 and 522.5 and 508 and 406.5 and 460.5 | improved locomotion and spontaneous activity | – |
| Ab: Aβ 1–42 (Invitrogen, 03112) used to induce an AD environment in cells | – | – | 0.1055 and 0.07523 and 0.08324 and 0.06718 and 0.09034 and 0.07923 |
